Values belong to the compound of their own block, whether it stands above or below them.
Tests used:
Aβ oligomers = settings: read-out: Kd, oligomer-selective probe; cited from earlier work
[1] = molecular target: T1, Aβ plaques in 5xFAD mice brain sections (Homo sapiens, UniProt P05067); assay: Fluorescence imaging of 5xFAD mouse brain sections, colocalization with Congo Red; settings: 9-month-old 5xFAD brain sections; compound 5 μM, Congo red 2.5 μM
T1 construct: aggregated Aβ species were commonly observed in brain sections from 5xFAD transgenic mice; tissue Jackson Laboratories; host or cells: brain sections of 9-month-old 5xFAD transgenic mice
T1 sequence (P05067 672-713 limits assumed): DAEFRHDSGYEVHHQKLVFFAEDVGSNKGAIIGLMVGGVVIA
Description: (§1) In order to confirm that the compounds can also bind to native Aβ species, brain sections collected from 9-month-old 5xFAD transgenic mice have been employed in the fluorescence imaging studies. […] The brain sections were first incubated with our compounds, followed by Congo Red (CR), which is a well-established fluorescent probe that can bind to Aβ plaques.[34] The treated brain sections were then imaged using fluorescence microscope. […] Immunostaining with the CF594-conjugated HJ 3.4 antibody (CF594-HJ3.4) was also performed to confirm that these six compounds can bind to Aβ species specifically in the brain sections (Fig. 5). Moreover, the log D values of the compounds were also measured by octanol-PBS partition assays.[35]
Fig. 4 Fluorescence microscopy images of 5xFAD mice brain sections co-incubated with amphiphilic compounds (top), Congo red (middle) and merged images (bottom, along with the Parson's correlation coefficients R). Concentrations: [amphiphilic compounds] = 5 μM, [Congo red] = 2.5 μM; scale bar: 125 μm. TEXT PRINTED IN THE PICTURE: ZY-5-MT: Merged R= 0.84 | ZY-12-DT: Merged R= 0.52 | ZY-12-OMe: Merged R= 0.77 | ZY-15-OMe: Merged R= 0.77 | ZY-17-DT: Merged R= 0.77 | ZY-17-OMe: Merged R= 0.72 […]
Histological Staining of 5×FAD Mice Brain Sections
5xFAD transgenic mice brain sections were blocked with bovine serum albumin (2% BSA in PBS, pH 7.4, 10 min). Then the mice brain sections were transferred to a PBS solution of the compound and incubated for 1 h. After which, the brain sections were transferred to a PBS solution of Congo Red or antibody HJ 3.4 (Professor David Holtzman, 1 μg/ml) and incubated for another 1 h. Then, the brain sections were treated with BSA again (5 min) followed by washing with PBS (3 × 2 min), DI water (3 × 2 min). Finally, the mice brain sections were mounted with non-fluorescent mounting media, and the images were obtained by using EVOS FL Auto 2. ImageJ Fiji program was used for colocalization analysis and determination of the Pearson’s correlation coefficient. The primary

[2] = Log D by octanol-PBS partition assay; format: physicochemical; settings: pH 7.4, fluorescence readout
Description: as §1, with “assays.[35] […]” for “assays.[35]”
The Log D value was measured following a published procedure using slight modifications.4 In general, compounds in 0.5 mL octanol was subjected to partition with 0.5 mL octanol-saturated
PBS. The whole mixture was stirred vigorously for 5 min, and centrifuged at 2,000 rpm for 5 min.
The top octanol layer was separated for later fluorescence measurement. The remaining PBS layer was partitioned with 0.5 mL PBS-saturated octanol, and the second top octanol layer was then separated after vigorous stirring and centrifuging at 2,000 rpm for another 5 min. The two octanol layers’ fluorescence spectra were recorded. The log D value was calculated by the fluorescence intensity ratio at the compounds’ emission wavelength for the above two octanol extractions. […]

Aβ42 fibrils = molecular target: T2, Aβ42 fibrils (Homo sapiens, UniProt P05067); assay: Fluorescence saturation binding assay with Aβ42 fibrils; settings: Aβ42 fibrils
T2 construct: 1 mg of commercial Aβ42 monomer powder (from GL biochem) was dissolved in 1; purchased GL biochem
T2 sequence (P05067 672-713 limits assumed): as above
Description: (§2) Fig. 3 Binding constant measurements of ZY-5-OMe (left), ZY-5-MT (middle), ZY-5-DT (right) with Aβ42 fibrils (top), and oligomers (bottom). The measurements were performed in 10 mM phosphate buffered saline (PBS), pH 7.4. The Kd curves were fitted in GraphPad Prism with one site-specific binding model. Equation: Y = Bmax × X/(Kd + X). [Aβ42 fibrils] = [Aβ42 oligomers] = 5 μM.
(§3) Preparation of the Aβ42 Fibrils and Aβ42 Oligomers
(§4) Aβ42 fibrils: 1 mg of commercial Aβ42 monomer powder (from GL biochem) was dissolved in 1
(§5) mL 1,1,1,3,3,3-hexafluoro-2-propanol (HFIP) at room temperature and incubated for 1h. The
(§6) resulting solution was divided equally into two Eppendorf tubes. The solution in each Eppendorf
(§7) tube containing 0.5 mg Aβ42 monomer was then evaporated overnight and dried by vacuum
(§8) centrifuge to generate monomeric films. 100 μM Aβ42 fibrils solution was prepared by dissolving
(§9) the 0.5 mg monomeric films in 1.1 mL PBS buffer (with final DMSO concentration less than 1%)
(§10) and stiring at 37 °C for 3 days.
(§11) Aβ42 oligomers: The 0.5 mg monomeric films were dissolved in 1.1 mL PBS buffer (with final
(§12) DMSO concentration less than 1%) and incubated at 4 °C overnight. The resulting solution was
(§13) then centrifuged at 3000 rpm for 15 mins to remove the insoluble aggregates. The clear supernatant
(§14) was then used for the following experiments. […]
(§15) In Vitro Saturation Binding Studies with Aβ42 Fibrils and Aβ42 Oligomers
(§16) To a solution of increasing concentrations of compounds, a fixed concentration of the generated
(§17) aggregated Aβ42 fibrils or Aβ42 oligomers solutions (5 to 15 μM) was added to yield a total volume
(§18) of 100 μL. Nonspecific binding was determined without compounds. The mixture was incubated
(§19) for 15 min at room temperature. All fluorescence data were obtained on a SpectraMax M2e plate
(§20) reader (Molecular Devices).

Aβ42 oligomers = molecular target: T3, Aβ42 oligomers (Homo sapiens, UniProt P05067); assay: Fluorescence saturation binding assay with Aβ42 oligomers
T3 construct: 1 mg of commercial Aβ42 monomer powder (from GL biochem) was dissolved in 1; purchased GL biochem
T3 sequence (P05067 672-713 limits assumed): as above
Description: as §2, §3, §4, §5, §6, §7, §8, §9, §10, §11, §12, §13, §14, §15, §16, §17, §18, §19, §20

[3] = tested on: mouse neuroblastoma N2a cells; assay: Alamar Blue cytotoxicity assay in N2a cells; format: cell-based; settings: 2 to 20 μM
Description: (§21) After confirming these amphiphilic compounds can bind to Aβ species both in vitro and ex vivo, we next investigated whether these compounds could attenuate the toxicity of the Cu–Aβ species, as the Cu^2+ ions were reported to promote the formation of neurotoxic soluble Aβ42 oligomers.[45,46] Firstly, the Alamar Blue cell viability assay was used to measure the cytotoxicity of the compounds at different concentrations ranging from 20 μM to 2 μM in mouse neuroblastoma N2a cells (Fig. 8). […] Considering its high binding affinity to both Aβ fibrils and oligomers, we also further tested its ability to alleviate Cu^2+–Aβ42-induced toxicity. […] The underlying mechanism is unclear, but we propose that these compounds might perform similarly to the toxic oligomers that bind to some cell membrane receptors or insert into the membrane lipids to form porous channels.
(§22) Alamar Blue assay was chosen for the cytotoxicity studies.3 Mouse neuroblastoma Neuro2A (N2A) cells were grown with DMEM/10% FBS in a petri dish at 37 °C in a humidified atmosphere with 5% CO2. Then N2A cells were seeded in a 96-well plate (1.0 × 10^4/well). After 24 h incubation, cell media was changed to DMEM/N-2, and N2A cells were incubated for another 1 h. Then the cells were treated with different concentrations of compounds for 40 h, Alamar Blue solution (10 μL) was added, and the cells were incubated for another 90 min at 37 °C. The fluorescence intensity of each well was measured at 590 nm (excitation wavelength = 560 nm).
(§23) For the Cu2+-Aβ-induced toxicity studies, cells were treated monomeric Aβ42, Cu2+, monomeric Aβ42 + Cu2+, and monomeric Aβ42 + Cu2+ + compounds, monomeric Aβ42 + Cu2+ + copper chelators (Me2HTACN or Me3TACN), respectively. After 40 h incubation, Alamar Blue solution (10 μL) was added, and the cells were incubated for another 90 min at 37 °C. The fluorescence intensity of each well was measured at 590 nm (excitation wavelength = 560 nm). […]

[4] = Alamar Blue cytotoxicity assay in N2a cells; format: cell-based, mouse; settings: mouse, N2a (Neuro2A) neuroblastoma cells, 40 h, read-out: cell viability
Description: as §21, §22, §23

SMILES: CCOc1cccc(C=Cc2cc(C)c3n2[B-](F)(F)[N+]2=C(CCC(=O)OCC(Cl)(Cl)Cl)C=CC2=C3)c1O [BD-Oligo]
Kd (Aβ oligomers): 480 nM

SMILES: CCN(CC)c1ccc(/C=C/C2=[O+][B-](F)(F)OC(/C=C/c3ccc(N(CC)CC)nc3)=C2CCCOc2c(C)cccc2C)cn1 [CRANAD-102]
Kd (Aβ oligomers): 7.5 ± 10 nM

SMILES: COCCOCCn1c2ccc(F)cc2c2cc(/C=C/c3cc[n+](CCO)c4ccccc34)ccc21 [F-SLOH]
Kd (Aβ oligomers): 660 nM

Pearson's correlation coefficient R, colocalization with Congo Red [1]: 0.77 | logD [2]: 1.17 ± 0.026 | Kd (Aβ42 fibrils; 10 mM PBS pH 7.4, one site-specific binding model, read-out: Kd, Fibrils): 390 nM | binding ratio, Fibrils (Aβ42 fibrils; from cross point between plateau and initial slope): 8.5 | Kd (Aβ42 oligomers; Aβ42 oligomers, 10 mM PBS pH 7.4, one site-specific binding model): 320 nM | binding ratio, Oligomers (Aβ42 oligomers; Aβ42 oligomers, from cross point between plateau and initial slope): 10.2
SMILES: COc1cc(-c2ccc(/C=C/c3ccc(N(C)C)cc3)s2)cc(CN2CCN(C)CCN(C)CC2)c1O [ZY-12-OMe]
binding preference oligomers vs fibrils (from Kd values) (Aβ42 oligomers; lower Kd for Aβ oligomers than Aβ fibrils): higher binding affinity to oligomers over fibrils | cytotoxicity (in words) [3]: higher cytotoxicity than others | viability at 40 h, 5 µM ([4]; at 5 μM): > 75% | viability at 40 h, 10 µM ([4]; at 10 μM): < 50%
